The values that follow come from patent publication US10975078B2, “Fused indazole pyridone compounds as antivirals” (priority 2017, dated 2021).

In the first assay the test system is HBsAg secretion, HepG2-Clone42 cells (Tet-inducible HBV-expressing, HBV ayw strain). Kind of assay: HBsAg assay (HBsAg ELISA, secreted HBV sAg from HepG2-Clone42 cells). Format: cell-based. The following applies: Hepatitis B virus, read-out: HBsAg (nM), EC50 = concentration at which HBsAg secretion was reduced 50% compared to DMSO control. The protocol:
HepG2-Clone42, a Tet-inducible HBV-expressing cell line with a stably integrated 1.3 mer copy of the HBV ayw strain, was generated based on the Tet-inducible HepAD38 cell line with slight modifications. Ladner S K, et al., Antimicrobial Agents and Chemotherapy. 41(8):1715-1720 (1997). HepG2-Clone42 cells were cultured in DMEM/F-12+Glutamax™ (Life Technologies, Carlsbad, Calif., USA), supplemented with 10% fetal bovine serum (Life Technologies), G-418 (Corning, Manassas, Va., USA) at a final concentration of 0.5 mg/mL, and 5 μg/mL Doxycycline (Sigma, St. Louis, Mo., USA) and maintained in 5% CO2 at 37° C.
HepG2-Clone42 cells were seeded into black clear-bottom 96-well plates at a concentration of 6.0×10^4 cells/well. 24 hours post-seeding, the cells were treated with 200 μl/well of media containing five-fold serial dilutions of compounds in DMSO. DMSO alone was used as the no drug control. The final DMSO concentration in all wells was 0.5%.
The HBsAg ELISA kit (Alpha Diagnostic International, San Antonio, Tex., USE, Catalog #4110) was used to determine the level (semi-quantitative) of secreted HBV sAg. The HBSAg ELISA assay was performed following the manufacturer's protocol as described.
Step 1. Pipet 100 μL each of compound or DMSO treated samples into HBsAg ELISA plates. Seal plates and incubate at room temp for 60 minutes.
Step 2. Aspirate samples and wash three times with Wash Buffer. Dispense 100 μL of antibody-HRP conjugate to each well. Incubate at room temp for 30 minutes.
Step 3. Aspirate samples and wash three times with Wash Buffer. Add 100 μL of TMB Substrate to all wells and incubate 15 minutes at room temp.
Step 4. Dispense 100 μL of Stop Solution to each well. Measure absorbance of ELISA plate at 450 nm.
Dose-response curves were generated and the EC50 value was defined as the compound concentration at which HBsAg secretion was reduced 50% compared to the DMSO control.
EC50 values were determined as follows:
Determine the percent of HBsAg secretion inhibition. Calculate the percent inhibition on of HBsAg secretion inhibition using the following equation: […]
where XC is the absorbance signal from compound-treated well; MB is average absorbance signal (background signal) for column 12 (no cells+HBsAg ELISA sample buffer) and MD is average absorbance signal from DMSO-treated wells. Then calculate EC50 values by non-linear regression using a four parameter curve logistic equation.
The curve fit model employed is XLFit Dose Response One Site Model 204: y=(A+((B−A)/(1+(10^((C−x)*D))))) where A is the minimum y value, B is the maximum y value, C is the log EC50 value, and D is the slope factor. In the following table+≥100 nM; 100 nM>++≥1 nM; 1 nM>+++
(In an ELISA, binding on a coated surface is turned into a signal by an enzyme label.)
Consider `CC(C)(C)C1Cn2nc3c(OC(F)F)cccc3c2-c2cc(=O)c(C(=O)O)cn21` (stereo not shown) [Example 2.5, 6-(tert-butyl)-10-(difluoromethoxy)-2-oxo-6,7-dihydro-2H-pyrido[2′,1′:3,4]pyrazino[1,2-b]indazole-3-carboxylic Acid], for which the EC50 lay in the range of 1 to 100 nM. On the same count and under the same terms, the same measure for `CC(C)(C)C1Cn2nc3c(OCCCOC(F)(F)F)cccc3c2-c2cc(=O)c(C(=O)O)cn21` (racemic) [Example 2.19, 6-(tert-butyl)-2-oxo-10-(3-(trifluoromethoxy)propoxy)-6,7-dihydro-2H-pyrido[2′,1′:3,4]pyrazino[1,2-b]indazole-3-carboxylic Acid]: under 1 nM. For `COCCOc1cccc2c3n(nc12)C1CCC(C)(C)C1n1cc(C(=O)O)c(=O)cc1-3` (single isomer, unassigned) [Example 6.2-I, 12-(2-methoxyethoxy)-3,3-dimethyl-7-oxo-2,3,3a,14a-tetrahydro-1H,7H-cyclopenta[5,6]pyrido[2′,1′:3,4]pyrazino[1,2-b]indazole-6-carboxylic Acid], the EC50 was in the range of 1 to 100 nM. As to `COCC1(COc2cccc3c4n(nc23)CC(C(C)(C)C)n2cc(C(=O)O)c(=O)cc2-4)CCC1` (stereo not shown) [Example 2.4, 6-(tert-butyl)-10-((1-(methoxymethyl)cyclobutyl)methoxy)-2-oxo-6,7-dihydro-2H-pyrido[2′,1′:3,4]pyrazino[1,2-b]indazole-3-carboxylic Acid], the EC50 is over 100 nM. As to `CC(C)(C)C1Cn2nc3c(OCC(O)CO)cccc3c2-c2cc(=O)c(C(=O)O)cn21` (racemic) [Example 2.28, 6-(tert-butyl)-10-(2,3-dihydroxypropoxy)-2-oxo-6,7-dihydro-2H-pyrido[2′,1′:3,4]pyrazino[1,2-b]indazole-3-carboxylic Acid], the EC50 is over 100 nM. Still for that read-out and setting: next, `CCC(C)Oc1cccc2c3n(nc12)CC(C(C)(C)C)n1cc(C(=O)O)c(=O)cc1-3` (racemic) [Example 2.7, 10-(sec-butoxy)-6-(tert-butyl)-2-oxo-6,7-dihydro-2H-pyrido[2′,1′:3,4]pyrazino[1,2-b]indazole-3-carboxylic acid]: under 1 nM; `CC(C)(C)C1Cn2nc3c(OCC4(CS(C)(=O)=O)CC4)cccc3c2-c2cc(=O)c(C(=O)O)cn21` (racemic) [Example 2.24, 6-(tert-butyl)-10-((1-((methylsulfonyl)methyl)cyclopropyl)methoxy)-2-oxo-6,7-dihydro-2H-pyrido[2′,1′:3,4]pyrazino[1,2-b]indazole-3-carboxylic Acid]: over 100 nM. Turning to `CCOC(=O)c1cn2c(cc1=O)-c1c3cccc(OCCCOC)c3nn1CC2C(C)(C)C` (racemic) [Example 2.1i, ethyl 6-(tert-butyl)-10-(3-methoxypropoxy)-2-oxo-6,7-dihydro-2H-pyrido[2′,1′:3,4]pyrazino[1,2-b]indazole-3-carboxylate], the EC50 was 1 to 100 nM. In the case of `CC(C)(C)C1Cn2nc3c(OCC4(C#N)CC4)cccc3c2-c2cc(=O)c(C(=O)O)cn21` (racemic) [Example 2.46, 6-(tert-butyl)-10-((1-cyanocyclopropyl)methoxy)-2-oxo-6,7-dihydro-2H-pyrido[2′,1′:3,4]pyrazino[1,2-b]indazole-3-carboxylic Acid], the EC50 fell in the range of 1 to 100 nM. The same measure, in the same setting: the same measure for `CC(C)(C)C1Cn2nc3c(OCCF)cccc3c2-c2cc(=O)c(C(=O)O)cn21` (racemic) [Example 2.41, 6-(tert-butyl)-10-(2-fluoroethoxy)-2-oxo-6,7-dihydro-2H-pyrido[2′,1′:3,4]pyrazino[1,2-b]indazole-3-carboxylic Acid]: under 1 nM; for `CCOCCCOc1cccc2c3n(nc12)CC(C(C)(C)C)n1cc(C(=O)O)c(=O)cc1-3` (racemic) [Example 2.14, 6-(tert-butyl)-10-(3-ethoxypropoxy)-2-oxo-6,7-dihydro-2H-pyrido[2′,1′:3,4]pyrazino[1,2-b]indazole-3-carboxylic Acid]: under 1 nM.

The assay is the same for the next values; noted with them: read-out: HBsAg, EC50 = concentration at which HBsAg secretion was reduced 50% compared to DMSO control.
On to `COCCCOc1cccc2c3n(nc12)CC(C(C)(C)C)n1cc(C(=O)O)c(=O)c(F)c1-3` (single isomer, unassigned) [Example 8.1-I, 6-(tert-butyl)-1-fluoro-10-(3-methoxypropoxy)-2-oxo-6,7-dihydro-2H-pyrido[2′,1′:3,4]pyrazino[1,2-b]indazole-3-carboxylic Acid], for which the EC50 was over 100 nM. On the same count and under the same terms, next, `COCCCOc1cccc2c3n(nc12)CC(C(C)(C)C)n1cc(C(=O)O)c(=O)cc1-3` (single isomer, unassigned) [Example 2.1-II, 6-(tert-butyl)-10-(3-methoxypropoxy)-2-oxo-6,7-dihydro-2H-pyrido[2′,1′:3,4]pyrazino[1,2-b]indazole-3-carboxylic Acid]: 1 to 100 nM. With `COc1ccc2nn3c(c2c1)-c1cc(=O)c(C(=O)O)cn1C(C(C)(C)C)C3` (single isomer, unassigned) [Example 1.3-I, 6-(tert-butyl)-12-methoxy-2-oxo-6,7-dihydro-2H-pyrido[2′,1′:3,4]pyrazino[1,2-b]indazole-3-carboxylic acid], the EC50 lay within 1 to 100 nM. Still for that read-out and setting: next, `COCC(C)(C)C1Cn2nc3c(OC)cccc3c2-c2cc(=O)c(C(=O)O)cn21` (single isomer, unassigned) [Example 4.1-II, 10-methoxy-6-(1-methoxy-2-methylpropan-2-yl)-2-oxo-6,7-dihydro-2H-pyrido[2′,1′:3,4]pyrazino[1,2-b]indazole-3-carboxylic Acid]: over 100 nM; `COc1cccc2c3n(nc12)C1COC(C)(C)C1n1cc(C(=O)O)c(=O)cc1-3` (single isomer, unassigned) [Example 10.1-II, 12-methoxy-3,3-dimethyl-7-oxo-1,3,3a,14a-tetrahydro-7H-furo[3′,4′:5,6]pyrido[2′,1′:3,4]pyrazino[1,2-b]indazole-6-carboxylic Acid]: 1 to 100 nM; `COc1cccc2c3n(nc12)C1COC(C)(C)C1n1cc(C(=O)O)c(=O)cc1-3` (single isomer, unassigned) [Example 10.1-I, 12-methoxy-3,3-dimethyl-7-oxo-1,3,3a,14a-tetrahydro-7H-furo[3′,4′:5,6]pyrido[2′,1′:3,4]pyrazino[1,2-b]indazole-6-carboxylic Acid]: over 100 nM. With `COCC(C)Oc1cccc2c3n(nc12)CC(C(C)(C)C)n1cc(C(=O)O)c(=O)cc1-3` (single isomer, unassigned) [Example 2.35-II, 6-(tert-butyl)-10-((1-methoxypropan-2-yl)oxy)-2-oxo-6,7-dihydro-2H-pyrido[2′,1′:3,4]pyrazino[1,2-b]indazole-3-carboxylic Acid], the EC50 was in the range of 1 to 100 nM. The same measure, in the same setting: the same measure for `CC1(C)CCC2C1n1cc(C(=O)O)c(=O)cc1-c1c3cccc(F)c3nn12` (single isomer, unassigned) [Example 5.2-II, 12-fluoro-3,3-dimethyl-7-oxo-2,3,3a,14a-tetrahydro-1H,7H-cyclopenta[5,6]pyrido[2′,1′:3,4]pyrazino[1,2-b]indazole-6-carboxylic Acid]: over 100 nM; for `CC(C)Oc1cccc2c3n(nc12)CC(C(C)(C)C)n1cc(C(=O)O)c(=O)cc1-3` (single isomer, unassigned) [Example 2.47-I, 6-(tert-butyl)-10-isopropoxy-2-oxo-6,7-dihydro-2H-pyrido[2′,1′:3,4]pyrazino[1,2-b]indazole-3-carboxylic Acid]: over 100 nM; for `COc1cccc2c3n(nc12)CC(C(C)(C)CO)n1cc(C(=O)O)c(=O)cc1-3` (single isomer, unassigned) [Example 3.1-I, 6-(1-hydroxy-2-methylpropan-2-yl)-10-methoxy-2-oxo-6,7-dihydro-2H-pyrido[2′,1′:3,4]pyrazino[1,2-b]indazole-3-carboxylic Acid]: over 100 nM.

Turning to `COCCCOc1cccc2c3n(nc12)C1CCC(C)(C)C1n1cc(C(=O)O)c(=O)cc1-3` (single isomer, unassigned) [Example 6.1-II, 12-(3-methoxypropoxy)-3,3-dimethyl-7-oxo-2,3,3a,14a-tetrahydro-1H,7H-cyclopenta[5,6]pyrido[2′,1′:3,4]pyrazino[1,2-b]indazole-6-carboxylic Acid], the EC50 is under 1 nM.
